Assay [1] has as its target recombinant human baculovirus-expressed AXL (Homo sapiens (Human), UniProt P30530). Description: AXL kinase assay (HTRF KinEASE). The format is biochemical. The conditions noted are these: average of two or more determinations.
In assay [2] the target is recombinant human baculovirus-expressed cMET (Homo sapiens (Human), UniProt P08581). Description: c-MET kinase assay (HTRF KinEASE). Particulars: average of two or more determinations; read-out: c-MET IC50. The format is biochemical.

For `O=C(Nc1ccc(Oc2cc(-c3cscn3)cn3nccc23)c(F)c1)c1cccn(-c2ccc(F)cc2)c1=O` [Example 102, 1-(4-Fluoro-phenyl)-2-oxo-1,2-dihydro-pyridine-3-carboxylic acid[3-fluoro-4-(6-thiazol-4-yl-pyrazolo[1,5-a]pyridin-4-yloxy)-phenyl]-amide], the concentration for half-maximal inhibition (IC50) in assay [1] and in assay [2] was less than 10 nM throughout.

As for `CCn1cc(C(=O)Nc2ccc(Oc3cc(-c4cscn4)cn4nccc34)c(F)c2)c(=O)n(-c2ccc(F)cc2)c1=O` [Example 101, 1-Ethyl-3-(4-fluoro-phenyl)-2,4-dioxo-1,2,3,4-tetrahydro-pyrimidine-5-carboxylic acid[3-fluoro-4-(6-thiazol-4-yl-pyrazolo[1,5-a]pyridin-4-yloxy)-phenyl]-amide], the IC50 in assay [1] and in assay [2] was less than 10 nM each time.

For “1-Ethyl-3-(4-fluoro-phenyl)-2,4-dioxo-1,2,3,4-tetrahydro-pyrimidine-5-carboxylic acid {3-fluoro-4-[6-(1H-pyrazol-3-yl)-pyrazolo[1,5-a]pyridin-4-yloxy]-phenyl}-amide [Example 40]”, the IC50 in assay [1] and in assay [2] was less than 10 nM throughout.

In the case of `O=C(Nc1ccc(Oc2cc(-c3cn[nH]c3)cn3nccc23)c(F)c1)c1cccn(-c2ccc(F)cc2)c1=O` [Example 42, 1-(4-Fluoro-phenyl)-2-oxo-1,2-dihydro-pyridine-3-carboxylic acid {3-fluoro-4-[6-(1H-pyrazol-4-yl)-pyrazolo[1,5-a]pyridine-4-yloxy]-phenyl}-amide], the IC50 in assay [1] and in assay [2] was less than 10 nM each time.

As to `Cc1ccc(C(=O)Nc2ccc(Oc3cc(-c4cnco4)cn4nccc34)c(F)c2)c(=O)n1-c1ccc(F)cc1` [Example 51, 1-(4-Fluoro-phenyl)-6-methyl-2-oxo-1,2-dihydro-pyridine-3-carboxylic acid [3-fluoro-4-(6-oxazol-5-yl-pyrazolo[1,5-a]pyridin-4-yloxy)-phenyl]-amide], the IC50 in assay [1] and in assay [2] was less than 10 nM each time.

Take `CCn1cc(C(=O)Nc2ccc(Oc3cc(NC(C)=O)cn4nccc34)c(F)c2)c(=O)n(-c2ccc(F)cc2)c1=O` [Example 142, 1-Ethyl-3-(4-fluoro-phenyl)-2,4-dioxo-1,2,3,4-tetrahydro-pyrimidine-5-carboxylic acid[4-(6-acetylamino-pyrazolo[1,5-a]pyridin-4-yloxy)-3-fluoro-phenyl]-amide]: the half-maximal inhibitory concentration (IC50) in assay [1] and in assay [2] was less than 10 nM throughout.

Take `CC(C)n1cc(C(=O)Nc2ccc(Oc3cc(-c4cn(C)cn4)cn4nccc34)cn2)c(=O)n(-c2ccc(F)cc2)c1=O` [Example 124, 3-(4-Fluoro-phenyl)-1-isopropyl-2,4-dioxo-1,2,3,4-tetrahydro-pyrimidine-5-carboxylic acid {5-[6-(1-methyl-1H-imidazol-4-yl)-pyrazolo[1,5-a]pyridin-4-yloxy]-pyridin-2-yl}-amide]: the 50% inhibitory concentration (IC50) in assay [1] and in assay [2] was less than 10 nM each time.

In the case of `Cc1ccc(C(=O)Nc2ccc(Oc3cc(-c4cn(C)cn4)cn4nccc34)c(F)c2)c(=O)n1-c1ccc(F)cc1` [Example 91, 1-(4-Fluoro-phenyl)-6-methyl-2-oxo-1,2-dihydro-pyridine-3-carboxylic acid {3-fluoro-4-[6-(1-methyl-1H-imidazol-4-yl)-pyrazolo[1,5-a]pyridin-4-yloxy]-phenyl}-amide], the 50% inhibitory concentration (IC50) in assay [1] and in assay [2] was less than 10 nM in each case.

As for `CC(C)n1cc(C(=O)Nc2ccc(Oc3cc(-c4cnsc4)cn4nccc34)c(F)c2)c(=O)n(-c2ccc(F)cc2)c1=O` [Example 55, 3-(4-Fluoro-phenyl)-1-isopropyl-2,4-dioxo-1,2,3,4-tetrahydro-pyrimidine-5-carboxylic acid[3-fluoro-4-(6-isothiazol-4-yl-pyrazolo[1,5-a]pyridin-4-yloxy)-phenyl]-amide], the IC50 in assay [1] and in assay [2] was less than 10 nM throughout.

As to `Cn1cnc(-c2cc(Oc3ccc(NC(=O)c4c[nH]c(=O)n(-c5ccc(F)cc5)c4=O)cc3F)c3ccnn3c2)c1` [Example 107, 3-(4-Fluoro-phenyl)-2,4-dioxo-1,2,3,4-tetrahydro-pyrimidine-5-carboxylic acid{3-fluoro-4-[6-(1-methyl-1H-imidazol-4-yl)-pyrazolo[1,5-a]pyridin-4-yloxy]-phenyl}-amide], the IC50 in assay [1] and in assay [2] was less than 10 nM in each case.

For the molecule `O=C(Nc1ccc(Oc2cc(-c3ccncc3)cn3nccc23)c(F)c1)c1cccn(-c2ccc(F)cc2)c1=O` [Example 27, 1-(4-Fluoro-phenyl)-2-oxo-1,2-dihydro-pyridine-3-carboxylic acid [3-fluoro-4-(6-pyridin-4-yl-pyrazolo[1,5-a]pyridin-4-yloxy)-phenyl]-amide], the IC50 in assay [1] and in assay [2] was less than 10 nM each time.

For `O=C(Nc1ccc(Oc2cc(-c3cccnc3)cn3nccc23)c(F)c1)c1cccn(-c2ccc(F)cc2)c1=O` [Example 25, 1-(4-Fluoro-phenyl)-2-oxo-1,2-dihydro-pyridine-3-carboxylic acid 3-fluoro-4-(6-pyridin-3-yl-pyrazolo[1,5-a]pyridin-4-yloxy)-phenyl-amide], the half-maximal inhibitory concentration (IC50) in assay [1] and in assay [2] was less than 10 nM throughout.

For the molecule `Cn1cc(Nc2cc(Oc3ccc(NC(=O)c4cccn(-c5ccc(F)cc5)c4=O)cc3F)c3ccnn3c2)cn1` [Example 79, 1-(4-Fluoro-phenyl)-2-oxo-1,2-dihydro-pyridine-3-carboxylic acid {3-fluoro-4-[6-(1-methyl-1H-pyrazol-4-ylamino)-pyrazolo[1,5-a]pyridin-4-yloxy]-phenyl}-amide], the IC50 in assay [1] and in assay [2] was less than 10 nM each time.

Take `CCn1cc(C(=O)Nc2ccc(Oc3cc(-c4cnsc4)cn4nccc34)c(F)c2)c(=O)n(-c2ccc(F)cc2)c1=O` [Example 54, 1-Ethyl-3-(4-fluoro-phenyl)-2,4-dioxo-1,2,3,4-tetrahydro-pyrimidine-5-carboxylic acid[3-fluoro-4-(6-isothiazol-4-yl-pyrazolo[1,5-a]pyridin-4-yloxy)-phenyl]-amide]: the IC50 in assay [1] and in assay [2] was less than 10 nM in each case.

`O=C(Nc1ccc(Oc2cc(-c3ccc(N4CCOCC4)nc3)cn3nccc23)c(F)c1)c1cccn(-c2ccc(F)cc2)c1=O` [Example 26, 1-(4-Fluoro-phenyl)-2-oxo-1,2-dihydro-pyridine-3-carboxylic acid {3-fluoro-4-[6-(6-morpholin-4-yl-pyridin-3-yl)-pyrazolo[1,5-a]pyridin-4-yloxy]-phenyl}-amide]: the IC50 in assay [1] and in assay [2] was less than 10 nM throughout.

`Cn1cnc(-c2cc(Oc3ccc(NC(=O)c4cn(CCOCc5ccccc5)c(=O)n(-c5ccc(F)cc5)c4=O)cc3F)c3ccnn3c2)c1` [Example 96, 1-(2-Benzyloxy-ethyl)-3-(4-fluoro-phenyl-)-2,4-dioxo-1,2,3,4-tetrahydro-pyrimidine-5-carboxylic acid{3-fluoro-4-[6-(1-methyl-1H-imidazol-4-yl)-pyrazolo[1,5-a]pyridin-4-yloxy]-phenyl}-amide]: the IC50 in assay [1] was less than 10 nM; in assay [2], 10 to 100 nM.

On to `CC(C)n1cc(C(=O)Nc2ccc(Oc3cc(-c4cn(C)cn4)cn4nccc34)c(F)c2)c(=O)n(-c2ccc(F)cc2)c1=O` [Example 94, 3-(4-Fluoro-phenyl)-1-isopropyl-2,4-dioxo-1,2,3,4-tetrahydro-pyrimidine-5-carboxylic acid {3-fluoro-4-[6-(1-methyl-1H-imidazol-4-yl)-pyrazolo[1,5-a]pyridin-4-yloxy]-phenyl}-amide], for which the IC50 in assay [1] and in assay [2] was less than 10 nM throughout.

Consider `Cc1[nH]ncc1-c1cc(Oc2ccc(NC(=O)c3cccn(-c4ccc(F)cc4)c3=O)cc2F)c2ccnn2c1` [Example 44, 1-(4-Fluoro-phenyl)-2-oxo-1,2-dihydro-pyridine-3-carboxylic acid{3-fluoro-4-[6-(5-methyl-1H-pyrazol-4-yl)-pyrazolo[1,5-a]pyridin-4-yloxy]-phenyl}-amide], for which the IC50 in assay [1] and in assay [2] was less than 10 nM each time.

`COC(=O)Nc1cc(Oc2ccc(NC(=O)c3cn(C(C)C)c(=O)n(-c4ccc(F)cc4)c3=O)cc2F)c2ccnn2c1` [Example 149, [4-(2-Fluoro-4-{[3-(4-fluoro-phenyl)-1-isopropyl-2,4-dioxo-1,2,3,4-tetrahydro-pyrimidine-5-carbonyl]-amino}-phenoxy)-pyrazolo[1,5-a]pyridin-6-yl]-carbamic acid methyl ester]: the IC50 in assay [1] was less than 10 nM; in assay [2], 10 to 100 nM.

Consider `Cc1ccc(C(=O)Nc2ccc(Oc3cc(N4CCC(=O)CC4)cn4nccc34)c(F)c2)c(=O)n1-c1ccc(F)cc1` [Example 59, 1-(4-Fluoro-phenyl)-6-methyl-2-oxo-1,2-dihydro-pyridine-3-carboxylic acid {3-fluoro-4-[6-(4-oxo-piperidin-1-yl)-pyrazolo[1,5-a]pyridin-4-yloxy]-phenyl}-amide], for which the IC50 in assay [1] is less than 10 nM; in assay [2], 10 to 100 nM.

In the case of `Cn1cc(-c2cc(Oc3ccc(NC(=O)c4cccn(-c5ccc(F)cc5)c4=O)cc3F)c3ccnn3c2)cn1` [Example 29, 1-(4-Fluoro-phenyl)-2-oxo-1,2-dihydro-pyridine-3-carboxylic acid {3-fluoro-4-[6-(1-methyl-1H-pyrazol-4-yl)-pyrazolo[1,5-a]pyridin-4-yloxy]-phenyl}-amide], the IC50 in assay [1] and in assay [2] was less than 10 nM in each case.

As for `Cc1c(-c2cc(Oc3ccc(NC(=O)c4cccn(-c5ccc(F)cc5)c4=O)cc3F)c3ccnn3c2)cnn1C` [Example 39, 1-(4-Fluoro-phenyl)-2-oxo-1,2-dihydro-pyridine-3-carboxylic acid {4-[6-(1,5-dimethyl-1H-pyrazol-4-yl)-pyrazolo[1,5-a]pyridin-4-yloxy]-3-fluoro-phenyl}-amide], the IC50 in assay [1] and in assay [2] was less than 10 nM in each case.

Consider `O=C(Nc1ccc(Oc2cc(N3CCOCC3)cn3nccc23)c(F)c1)c1cccn(-c2ccc(F)cc2)c1=O` [Example 56, 1-(4-Fluoro-phenyl)-2-oxo-1,2-dihydro-pyridine-3-carboxylic acid[3-fluoro-4-(6-morpholin-4-yl-pyrazolo[1,5-a]pyridin-4-yloxy)-phenyl]-amide], for which the IC50 in assay [1] and in assay [2] was less than 10 nM throughout.

The values are drawn from patent US9914731B2, “Pyrazolo[1,5-a]pyridine derivatives and methods of their use” (Ignyta, Inc., priority 2013, dated 2018).
